Assay results from patent US6737383B1, “Herbicidal oxadiazolidines” (priority 1999, dated 2004).

Assays:
bedstraw = test: Test B pre/postemergence bedstraw; assay type: in vivo, Galium aparine; conditions: for Bedstraw plant response rating (0 to 10 scale): 0 is no effect
How it was run: (§1)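 Herbicidal effect was estimated by eye on a ten-point control scale after plants spent twelve to sixteen days in a greenhouse following soil or foliar treatment. Foliar sprays targeted plants at one to four leaves; all doses were formulated in a non-phytotoxic solvent with surfactant.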

soybean = test: Test B pre/postemergence soybean; assay type: in vivo, Glycine max; conditions: for Soybean plant response rating (0 to 10 scale): 0 is no effect
How it was run: as §1

wild oat = test: Test B pre/postemergence wild oat; assay type: in vivo, Avena fatua; conditions: for Wild oats plant response rating (0 to 10 scale): 0 is no effect
How it was run: as §1

bamyardgrass = test: Test B flood test barnyardgrass; assay type: in vivo, Echinochloa crus-galli
How it was run: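 Plants were grown to the 2-leaf stage before treatment with test chemical, then held in a greenhouse for twelve to sixteen days. Injury was visually rated against untreated controls on a 0–10 scale, where 0 is no effect and 10 is complete control.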

[1] = Postemergence, Rate 125 g/ha, scale of 0 to 10 where 0 is no effect and 10 is complete control
[2] = Preemergence, Rate 31 g/ha, visual rating, scale 0 to 10 (0 no effect, 10 complete control)
[3] = Preemergence, Rate 62 g/ha, scale 0 to 10 (0 no effect, 10 complete control)
[4] = Preemergence, Rate 125 g/ha, 10 is complete control
[5] = Preemergence, Rate 250 g/ha, scale 0 to 10, 0 is no effect, 10 is complete control
[6] = Rate 62 g/ha, Postemergence, scale of 0 to 10 where 0 is no effect and 10 is complete control
[7] = Rate 250 g/ha, Postemergence, scale 0 to 10, 0 is no effect, 10 is complete control
[8] = Postemergence (flood test species), Rate 125 g/ha, scale of 0 to 10 where 0 is no effect and 10 is complete control
[9] = Rate 62 g/ha, Postemergence section, flood test species, scale of 0 to 10 where 0 is no effect and 10 is complete control
[10] = Rate 250 g/ha, Postemergence (flood test), scale 0 to 10, 0 is no effect, 10 is complete control
[11] = Preemergence, Rate 62 g/ha, scale of 0 to 10 where 0 is no effect and 10 is complete control
[12] = Preemergence, Rate 500 g/ha, scale 0 to 10 (0 no effect, 10 complete control)
[13] = Rate 500 g/ha, Postemergence, scale 0 to 10
[14] = Rate 62 g/ha, headed Pre-emergence (flood test species), scale 0 to 10 (0 no effect, 10 complete control)
[15] = Rate 125 g/ha, Pre-emergence, flood test species, scale 0 to 10 where 0 is no effect and 10 is complete control
[16] = Rate 250 g/ha, Pre-emergence, flood-test species, scale 0 to 10, 0 is no effect, 10 is complete control
[17] = Rate 500 g/ha, headed Pre-emergence (flood test species), scale 0 to 10 (0 no effect, 10 complete control)
[18] = Preemergence, Rate 500 g/ha, scale of 0 to 10 where 0 is no effect and 10 is complete control
[19] = Rate 125 g/ha, Postemergence, scale 0 to 10
[20] = Preemergence, Rate 250 g/ha, scale of 0 to 10 where 0 is no effect and 10 is complete control
[21] = Rate 125 g/ha, Preemergence, scale of 0 to 10 where 0 is no effect and 10 is complete control
[22] = Rate 500 g/ha, Postemergence, scale 0 to 10, 0 no effect, 10 complete control
[23] = Rate 500 g/ha, Pre-emergence, flood test species, scale 0 to 10 (0 no effect, 10 complete control)
[24] = Postemergence, Rate 1000 g/ha, scale 0 to 10 (0 no effect, 10 complete control)
[25] = Rate 1000 g/ha, Preemergence, scale 0 to 10 (0 no effect, 10 complete control)

Cc1noc(C)c1-n1c(=O)on(C(=O)N(c2ccc(F)cc2F)C(C)C)c1=O [Compound 156]
Bedstraw plant response rating (bedstraw; [1]): 0
Bedstraw plant response rating (bedstraw; [2]): 0
Bedstraw plant response rating (bedstraw; [3]): 0
Bedstraw plant response rating (0 to 10 scale) (bedstraw; [4]): 0
Bedstraw plant response rating (bedstraw; [5]): 0
Bedstraw plant response rating (bedstraw; Rate 31 g/ha, Postemergence, scale 0 to 10): 0
Bedstraw plant response rating (bedstraw; [6]): 0
Plant response rating, Bedstraw (bedstraw; [7]): 0
Soybean plant response rating (soybean; [1]): 1
Soybean plant response rating (soybean; [2]): 0
Soybean plant response rating (soybean; [3]): 0
Soybean plant response rating (0 to 10 scale) (soybean; [4]): 0
Soybean plant response rating (soybean; [5]): 0
Soybean plant response rating (soybean; [6]): 1
Plant response rating, Soybean (soybean; [7]): 1
Wild oats plant response rating (wild oat; [2]): 0
Wild oats plant response rating (wild oat; [3]): 0
Wild oats plant response rating (0 to 10 scale) (wild oat; [4]): 0
Wild oats plant response rating (wild oat; [5]): 0
Wild oats plant response rating (wild oat; [6]): 0
Plant response rating, Wild oats (wild oat; [7]): 0
Barnyardgrass plant response rating (bamyardgrass; [8]): 0
Barnyardgrass plant response rating (bamyardgrass; Rate 31 g/ha, Postemergence section (flood test species), scale 0 to 10): 0
Barnyardgrass plant response rating (bamyardgrass; [9]): 0
Plant response rating, Barnyardgrass (bamyardgrass; [10]): 0

CCN(Cc1ccccc1)C(=O)n1oc(=O)n(C(C)C)c1=O [Compound 166]
Bedstraw plant response rating (bedstraw; [1]): 0
Bedstraw plant response rating (bedstraw; [11]): 0
Bedstraw plant response rating (0 to 10 scale) (bedstraw; [4]): 0
Bedstraw plant response rating (bedstraw; [5]): 0
Bedstraw plant response rating (bedstraw; [12]): 0
Bedstraw plant response rating (bedstraw; [6]): 0
Plant response rating, Bedstraw (bedstraw; [7]): 1
Bedstraw plant response rating (bedstraw; [13]): 5
Soybean plant response rating (soybean; [1]): 0
Soybean plant response rating (soybean; [11]): 0
Soybean plant response rating (0 to 10 scale) (soybean; [4]): 0
Soybean plant response rating (soybean; [5]): 0
Soybean plant response rating (soybean; [12]): 2
Soybean plant response rating (soybean; [6]): 0
Plant response rating, Soybean (soybean; [7]): 2
Soybean plant response rating (soybean; [13]): 3
Wild oats plant response rating (wild oat; [11]): 0
Wild oats plant response rating (0 to 10 scale) (wild oat; [4]): 0
Wild oats plant response rating (wild oat; [5]): 0
Wild oats plant response rating (wild oat; [12]): 2
Plant response rating, Wild oats (wild oat; [7]): 0
Wild oats plant response rating (wild oat; [13]): 2
Barnyardgrass plant response rating (bamyardgrass; [14]): 0
Barnyardgrass plant response rating (bamyardgrass; [15]): 0
Barnyardgrass plant response rating (bamyardgrass; [16]): 0
Plant response rating, Barnyardgrass (bamyardgrass; [17]): 0

Cc1ccccc1-n1c(=O)on(C(=O)N(c2cccc(F)c2F)C(C)C)c1=O [Compound 171]
Bedstraw plant response rating (bedstraw; [1]): 7
Bedstraw plant response rating (bedstraw; [11]): 0
Bedstraw plant response rating (0 to 10 scale) (bedstraw; [4]): 0
Bedstraw plant response rating (bedstraw; [5]): 0
Bedstraw plant response rating (bedstraw; [12]): 0
Plant response rating, Bedstraw (bedstraw; [7]): 8
Soybean plant response rating (soybean; [1]): 1
Soybean plant response rating (soybean; [11]): 0
Soybean plant response rating (0 to 10 scale) (soybean; [4]): 0
Soybean plant response rating (soybean; [5]): 0
Soybean plant response rating (soybean; [12]): 0
Soybean plant response rating (soybean; [6]): 1
Plant response rating, Soybean (soybean; [7]): 1
Soybean plant response rating (soybean; [13]): 3
Wild oats plant response rating (wild oat; [11]): 0
Wild oats plant response rating (0 to 10 scale) (wild oat; [4]): 2
Wild oats plant response rating (wild oat; [5]): 4
Wild oats plant response rating (wild oat; [12]): 5
Plant response rating, Wild oats (wild oat; [7]): 0
Wild oats plant response rating (wild oat; [13]): 0
Barnyardgrass plant response rating (bamyardgrass; [8]): 0
Barnyardgrass plant response rating (bamyardgrass; [9]): 0
Plant response rating, Barnyardgrass (bamyardgrass; [10]): 0
Barnyardgrass plant response rating (bamyardgrass; Rate 500 g/ha, listed under Postemergence (flood test species), scale 0 to 10): 0

Cc1nc(C)c(-n2c(=O)on(C(=O)N(c3ccc(F)cc3)C(C)C)c2=O)s1 [Compound 198]
Bedstraw plant response rating (bedstraw; [11]): 0
Bedstraw plant response rating (0 to 10 scale) (bedstraw; [4]): 0
Bedstraw plant response rating (bedstraw; [5]): 0
Plant response rating, Bedstraw (bedstraw; [18]): 0
Bedstraw plant response rating (bedstraw; [6]): 0
Bedstraw plant response rating (bedstraw; [19]): 0
Plant response rating (0 to 10; 0 is no effect, 10 is complete control), Bedstraw (bedstraw; Rate 250 g/ha, Postemergence): 0
Soybean plant response rating (soybean; [11]): 0
Soybean plant response rating (0 to 10 scale) (soybean; [4]): 0
Soybean plant response rating (soybean; [5]): 0
Plant response rating, Soybean (soybean; [18]): 0
Soybean plant response rating (soybean; [6]): 0
Soybean plant response rating (soybean; [19]): 0
Plant response rating (0 to 10; 0 is no effect, 10 is complete control), Soybean (soybean; Rate 250 g/ha, Postemergence): 0
Soybean plant response rating (soybean; [13]): 1
Wild oats plant response rating (wild oat; [11]): 0
Wild oats plant response rating (wild oat; [5]): 0
Plant response rating, Wild oats (wild oat; [18]): 0
Wild oats plant response rating (wild oat; [6]): 0
Wild oats plant response rating (wild oat; [19]): 0
Plant response rating (0 to 10; 0 is no effect, 10 is complete control), Wild oats (wild oat; Rate 250 g/ha, Postemergence): 0
Barnyardgrass plant response rating (bamyardgrass; [14]): 0
Barnyardgrass plant response rating (bamyardgrass; [15]): 0
Barnyardgrass plant response rating (bamyardgrass; [16]): 0
Plant response rating, Barnyardgrass (bamyardgrass; [17]): 0

COc1cc(C)cc(C)c1-n1c(=O)on(C(=O)N(c2ccc(F)cc2)C(C)C)c1=O [Compound 222]
Bedstraw plant response rating (bedstraw; [11]): 0
Bedstraw plant response rating (bedstraw; [20]): 0
Plant response rating, Bedstraw (bedstraw; [18]): 0
Bedstraw plant response rating (bedstraw; [6]): 3
Bedstraw plant response rating (bedstraw; [19]): 3
Bedstraw plant response rating (bedstraw; [21]): 0
Plant response rating (0 to 10; 0 is no effect, 10 is complete control), Bedstraw (bedstraw; Rate 250 g/ha, Postemergence): 4
Bedstraw plant response rating (bedstraw; [22]): 5
Soybean plant response rating (soybean; [11]): 0
Soybean plant response rating (soybean; [20]): 0
Plant response rating, Soybean (soybean; [18]): 0
Soybean plant response rating (soybean; [6]): 2
Soybean plant response rating (soybean; [19]): 3
Soybean plant response rating (soybean; [21]): 0
Plant response rating (0 to 10; 0 is no effect, 10 is complete control), Soybean (soybean; Rate 250 g/ha, Postemergence): 3
Soybean plant response rating (soybean; [22]): 2
Wild oats plant response rating (wild oat; [11]): 0
Wild oats plant response rating (wild oat; [20]): 0
Plant response rating, Wild oats (wild oat; [18]): 1
Wild oats plant response rating (wild oat; [6]): 0
Wild oats plant response rating (wild oat; [19]): 0
Wild oats plant response rating (wild oat; [21]): 0
Plant response rating (0 to 10; 0 is no effect, 10 is complete control), Wild oats (wild oat; Rate 250 g/ha, Postemergence): 0
Wild oats plant response rating (wild oat; [22]): 0
Barnyardgrass plant response rating (bamyardgrass; [14]): 0
Barnyardgrass plant response rating (bamyardgrass; [15]): 0
Barnyardgrass plant response rating (bamyardgrass; [16]): 0
Barnyardgrass plant response rating (bamyardgrass; [23]): 0

Cc1ccccc1-n1c(=O)on(C(=O)N(c2ccc(C(C)C)cc2)C(C)C)c1=O [Compound 231]
Bedstraw plant response rating (bedstraw; [11]): 0
Bedstraw plant response rating (bedstraw; [20]): 0
Plant response rating, Bedstraw (bedstraw; [18]): 0
Bedstraw plant response rating (bedstraw; [6]): 0
Bedstraw plant response rating (bedstraw; [19]): 0
Bedstraw plant response rating (bedstraw; [21]): 0
Plant response rating (0 to 10; 0 is no effect, 10 is complete control), Bedstraw (bedstraw; Rate 250 g/ha, Postemergence): 0
Bedstraw plant response rating (bedstraw; [22]): 0
Soybean plant response rating (soybean; [11]): 0
Soybean plant response rating (soybean; [20]): 0
Plant response rating, Soybean (soybean; [18]): 0
Soybean plant response rating (soybean; [6]): 0
Soybean plant response rating (soybean; [19]): 1
Soybean plant response rating (soybean; [21]): 0
Plant response rating (0 to 10; 0 is no effect, 10 is complete control), Soybean (soybean; Rate 250 g/ha, Postemergence): 1
Soybean plant response rating (soybean; [22]): 1
Wild oats plant response rating (wild oat; [11]): 0
Wild oats plant response rating (wild oat; [20]): 0
Plant response rating, Wild oats (wild oat; [18]): 0
Wild oats plant response rating (wild oat; [6]): 0
Wild oats plant response rating (wild oat; [19]): 0
Wild oats plant response rating (wild oat; [21]): 0
Plant response rating (0 to 10; 0 is no effect, 10 is complete control), Wild oats (wild oat; Rate 250 g/ha, Postemergence): 0
Wild oats plant response rating (wild oat; [22]): 0
Barnyardgrass plant response rating (bamyardgrass; [14]): 0
Barnyardgrass plant response rating (bamyardgrass; [15]): 0
Barnyardgrass plant response rating (bamyardgrass; [16]): 0
Barnyardgrass plant response rating (bamyardgrass; [23]): 0

CCOC(=O)C(C)N(C(=O)n1oc(=O)n(-c2ccccc2C)c1=O)c1ccc(F)cc1 (stereo not drawn) [Compound 247]
Bedstraw plant response rating (bedstraw; [24]): 0
Bedstraw plant response rating (bedstraw; [20]): 0
Plant response rating, Bedstraw (bedstraw; [18]): 0
Bedstraw plant response rating (bedstraw; [19]): 0
Bedstraw plant response rating (bedstraw; [21]): 0
Plant response rating (0 to 10; 0 is no effect, 10 is complete control), Bedstraw (bedstraw; Rate 250 g/ha, Postemergence): 0
Bedstraw plant response rating (bedstraw; [22]): 0
Plant response rating, Bedstraw (bedstraw; [25]): 0
Soybean plant response rating (soybean; [24]): 1
Soybean plant response rating (soybean; [20]): 0
Plant response rating, Soybean (soybean; [18]): 0
Soybean plant response rating (soybean; [21]): 0
Soybean plant response rating (soybean; [22]): 0
Plant response rating, Soybean (soybean; [25]): 0
Wild oats plant response rating (wild oat; [24]): 0
Wild oats plant response rating (wild oat; [20]): 0
Plant response rating, Wild oats (wild oat; [18]): 0
Wild oats plant response rating (wild oat; [21]): 0
Wild oats plant response rating (wild oat; [22]): 0
Plant response rating, Wild oats (wild oat; [25]): 0
Barnyardgrass plant response rating (bamyardgrass; Pre-emergence, Rate 1000 g/ha, scale 0 to 10 (0 no effect, 10 complete control)): 0
Barnyardgrass plant response rating (bamyardgrass; [15]): 0
Barnyardgrass plant response rating (bamyardgrass; [16]): 0
Barnyardgrass plant response rating (bamyardgrass; [23]): 0
